Experimental data: patent US9795607B2, “Substituted pyrrolopyrimidine compounds, compositions thereof, and methods of treatment therewith” (Signal Pharmaceutical, LLC, priority 2013, dated 2017)

Tested on: Triple negative breast cancer cell line CAL51
Test: Cell Titer Glo proliferation assay, CAL51
Type: cell-based
Settings: Homo sapiens, CAL-51; CAL51 cell proliferation (Table 1); read-out: Act. Level
Experimental: Cell Titer Glo Proliferation Assay.
Triple negative breast cancer cell line CAL51 was purchased from DSMZ. […] Allcell lines were maintained in growth media consisting of 90% high glucose Dulbecco's Modified Eagle Medium or RPMI1640 (Invitrogen), 10% fetal bovine serum (Hyclone), and 2 mM L-glutamine (Invitrogen). […] After overnight culture, compound stock (30 mM) was diluted serially in DMSO, further diluted in growth media, and was added to each well as a 10× concentrated solution in a volume of 11 μL, mixed, and allowed to incubate with cells. The compound vehicle (DMSO) was maintained at a final concentration of 0.2% in all wells. After 72 h, 100 μL of Cell Titer Glo solution (Promega) was added to each well of the 96-well plate. The plate was placed on a shaker for 2 minutes. After 10 minutes incubation, the luminescence signal was detected with Envision microplate reader (Perkin Elmer).

Row | IC50 [nM] | SMILES
1 | < 100 | CNC(=O)c1ccc(-c2c[nH]c3nc(Nc4ccc(C(=O)NC)cc4Cl)nc(O[C@@H]4CCOC4)c23)cc1 [Example 434, (R)-3-chloro-N-methyl-4-(5-(4-(methylcarbamoyl)phenyl)-4-(tetrahydrofuran-3-yloxy)-7H-pyrrolo[2,3-d]pyrimidin-2-ylamino)benzamide]
2 | < 100 | CNC(=O)c1ccc(-c2c[nH]c3nc(Nc4ccc(C(=O)NC)cc4Cl)nc(OC4CCCC4)c23)cc1 [Example 425, 3-chloro-4-(4-(cyclopentyloxy)-5-(4-(methylcarbamoyl)phenyl)-7H-pyrrolo[2,3-d]pyrimidin-2-ylamino)-N-methylbenzamide]
3 | 1000 to 10000 | COc1cc(C(=O)NC2COC2)ccc1Nc1nc(OC)c2c(-c3cn(C)nc3Cl)c[nH]c2n1 [Example 417, 4-(5-(3-chloro-1-methyl-1H-pyrazol-4-yl)-4-methoxy-7H-pyrrolo[2,3-d]pyrimidin-2-ylamino)-3-methoxy-N-(oxetan-3-yl)benzamide]
4 | 1000 to 10000 | COc1nc(Nc2ccc(C(=O)N(C)C)cc2C)nc2[nH]cc(-c3ccc4c(c3)nc(C)n4C)c12 [Example 410, 4-(5-(1,2-dimethyl-1H-benzo[d]imidazol-5-yl)-4-methoxy-7H-pyrrolo[2,3-d]pyrimidin-2-ylamino)-N,N,3-trimethylbenzamide]
5 | < 100 | CNC(=O)c1ccc(-c2c[nH]c3nc(Nc4ccc(C(=O)NC)cc4Cl)nc(OC4CCOCC4)c23)cc1 [Example 421, 3-chloro-N-methyl-4-(5-(4-(methylcarbamoyl)phenyl)-4-(tetrahydro-2H-pyran-4-yloxy)-7H-pyrrolo[2,3-d]pyrimidin-2-ylamino)benzamide]
6 | < 100 | Cc1nc2ccc(-c3c[nH]c4nc(Nc5ccc(C(=O)NC6COC6)cc5Cl)nc(OC5CCOCC5)c34)cc2o1 [Example 438, 3-chloro-4-(5-(2-methylbenzo[d]oxazol-6-yl)-4-(tetrahydro-2H-pyran-4-yloxy)-7H-pyrrolo[2,3-d]pyrimidin-2-ylamino)-N-(oxetan-3-yl)benzamide]
7 | 1000 to 10000 | COc1nc(Nc2ccnn2C)nc2[nH]cc(-c3ccncc3)c12 [Example 401, 4-methoxy-N-(1-methyl-1H-pyrazol-5-yl)-5-(pyridin-4-yl)-7H-pyrrolo[2,3-d]pyrimidin-2-amine]
8 | < 100 | CCc1cc(C(=O)NC)ccc1Nc1nc(OC2CCOCC2)c2c(-c3ccc4nc(C)oc4c3)c[nH]c2n1 [Example 435, 3-ethyl-N-methyl-4-(5-(2-methylbenzo[d]oxazol-6-yl)-4-(tetrahydro-2H-pyran-4-yloxy)-7H-pyrrolo[2,3-d]pyrimidin-2-ylamino)benzamide]
9 | 1000 to 10000 | COc1nc(Nc2ccc3[nH]ncc3c2C)nc2[nH]cc(-c3ccncc3)c12 [Example 414, 4-methoxy-N-(4-methyl-1H-indazol-5-yl)-5-(pyridin-4-yl)-7H-pyrrolo[2,3-d]pyrimidin-2-amine]
10 | 100 to 400 | COc1nc(Nc2ccc(C(=O)N(C)C3COC3)cc2C)nc2[nH]cc(-c3ccncc3)c12 [Example 406, 4-(4-methoxy-5-(pyridin-4-yl)-7H-pyrrolo[2,3-d]pyrimidin-2-ylamino)-N,3-dimethyl-N-(oxetan-3-yl)benzamide]

Same assay, conditions: Homo sapiens, CAL-51; CAL51 cell proliferation, Cell Titer Glo; read-out: Act. Level

Row | IC50 [nM] | SMILES
11 | < 100 | COc1cc(C(=O)NC2COC2)ccc1Nc1nc(OC2CCOCC2)c2c(-c3ccc4nc(C)oc4c3)c[nH]c2n1 [Example 368, 3-methoxy-4-(5-(2-methylbenzo[d]oxazol-6-yl)-4-(tetrahydro-2H-pyran-4-yloxy)-7H-pyrrolo[2,3-d]pyrimidin-2-ylamino)-N-(oxetan-3-yl)benzamide]
12 | < 100 | CNC(=O)c1ccc(-c2c[nH]c3nc(Nc4ccc(C(=O)NC5CN(C)C5)cc4OC)nc(OC(C)C)c23)cc1 [Example 357, 4-(4-isopropoxy-5-(4-(methylcarbamoyl)phenyl)-7H-pyrrolo[2,3-d]pyrimidin-2-ylamino)-3-methoxy-N-(1-methylazetidin-3-yl)benzamide]
13 | 100 to 400 | COc1cc(C(=O)NC2CN(C)C2)ccc1Nc1nc(OC2CCOCC2)c2c(-c3ccc4nc(C)oc4c3)c[nH]c2n1 [Example 367, 3-methoxy-N-(1-methylazetidin-3-yl)4-(5-(2-methylbenzo[d]oxazol-6-yl)-4-(tetrahydro-2H-pyran-4-yloxy)-7H-pyrrolo[2,3-d]pyrimidin-2-ylamino)benzamide]
14 | < 100 | CNC(=O)c1ccc(-c2c[nH]c3nc(Nc4ccc(C(=O)N5CC5)cc4OC)nc(O[C@H]4CC[C@@](C)(O)CC4)c23)cc1 [Example 336, 4-(2-(4-(aziridine-1-carbonyl)-2-methoxyphenylamino)-4-((1s,4s)-4-hydroxy-4-methylcyclohexyloxy)-7H-pyrrolo[2,3-d]pyrimidin-5-yl)-N-methylbenzamide]
15 | 100 to 400 | CNC(=O)c1ccc(Nc2nc(OC3CCCC3)c3c(-c4cc(F)c5nc(C)oc5c4)c[nH]c3n2)c(OC)c1 [Example 330, 4-(4-(cyclopentyloxy)-5-(4-fluoro-2-methylbenzo[d]oxazol-6-yl)-7H-pyrrolo[2,3-d]pyrimidin-2-ylamino)-3-methoxy-N-methylbenzamide]
16 | 100 to 400 | CNC(=O)c1ccc(Nc2nc(OC3CCOCC3)c3c(-c4cncc(OC)c4)c[nH]c3n2)c(OC)c1 [Example 325, 3-methoxy-4-(5-(5-methoxypyridin-3-yl)-4-(tetrahydro-2H-pyran-4-yloxy)-7H-pyrrolo[2,3-d]pyrimidin-2-ylamino)-N-methylbenzamide]
17 | 1000 to 10000 | CNC(=O)c1ccc(Nc2nc(OC3CCCC3)c3c(-c4ccc(C(=O)OC)cc4)c[nH]c3n2)c(OC)c1 [Example 318, methyl 4-(4-(cyclopentyloxy)-2-(2-methoxy-4-(methylcarbamoyl)phenylamino)-7H-pyrrolo[2,3-d]pyrimidin-5-yl)benzoate]
18 | 100 to 400 | COc1cc(C(=O)NC2COC2)ccc1Nc1nc(OC)c2c(-c3ccnc(Cl)c3)c[nH]c2n1 [Example 394, 4-(5-(2-chloropyridin-4-yl)-4-methoxy-7H-pyrrolo[2,3-d]pyrimidin-2-ylamino)-3-methoxy-N-(oxetan-3-yl)benzamide]
19 | < 100 | COCCOc1nc(Nc2ccc(C(=O)NC3COC3)cc2OC)nc2[nH]cc(-c3ccc4nc(C)oc4c3)c12 [Example 365, 3-methoxy-4-(4-(2-methoxyethoxy)-5-(2-methylbenzo[d]oxazol-6-yl)-7H-pyrrolo[2,3-d]pyrimidin-2-ylamino)-N-(oxetan-3-yl)benzamide]
20 | 100 to 400 | COc1cc(C(=O)N2C[C@@H]2CO)ccc1Nc1nc(OC2CCCC2)c2c(-c3ccc4nc(C)oc4c3)c[nH]c2n1 [Example 346, (R)-(4-(4-(cyclopentyloxy)-5-(2-methylbenzo[d]oxazol-6-yl)-7H-pyrrolo[2,3-d]pyrimidin-2-ylamino)-3-methoxyphenyl)(2-(hydroxymethyl)aziridin-1-yl)methanone]
21 | 1000 to 10000 | COCCOc1nc(Nc2ccc(C(=O)NC3CN(C)C3)cc2OC)nc2[nH]cc(-c3ccc4nc(C)oc4c3)c12 [Example 386, 3-methoxy-4-(4-(2-methoxyethoxy)-5-(2-methylbenzo[d]oxazol-6-yl)-7H-pyrrolo[2,3-d]pyrimidin-2-ylamino)-N-(1-methylazetidin-3-yl)benzamide]
22 | < 100 | CNC(=O)c1ccc(Nc2nc(O[C@H]3CCOC3)c3c(-c4cnn(C)c4)c[nH]c3n2)c(OC)c1 [Example 328, (S)-3-methoxy-N-methyl-4-(5-(1-methyl-1H-pyrazol-4-yl)-4-(tetrahydrofuran-3-yloxy)-7H-pyrrolo[2,3-d]pyrimidin-2-ylamino)benzamide]
23 | 100 to 400 | CNC(=O)c1ccc(-c2c[nH]c3nc(Nc4ccc(C(=O)NC5CN(C)C5)cc4OC)nc(OC4CC4)c23)cc1 [Example 364, 4-(4-cyclopropoxy-5-(4-(methylcarbamoyl)phenyl)-7H-pyrrolo[2,3-d]pyrimidin-2-ylamino)-3-methoxy-N-(1-methylazetidin-3-yl)benzamide]
24 | < 100 | COc1cc(C(=O)NC2CN(C)C2)ccc1Nc1nc(O[C@H]2CCOC2)c2c(-c3ccc4nc(C)oc4c3)c[nH]c2n1 [Example 374, (S)-3-methoxy-N-(1-methylazetidin-3-yl)-4-(5-(2-methylbenzo[d]oxazol-6-yl)-4-(tetrahydrofuran-3-yloxy)-7H-pyrrolo[2,3-d]pyrimidin-2-ylamino)benzamide]
25 | 400 to 1000 | COc1cc(C(=O)N2CC2C)ccc1Nc1nc(OC2CCCC2)c2c(-c3ccc4nc(C)oc4c3)c[nH]c2n1 [Example 335, (R)-(4-(4-(cyclopentyloxy)-5-(2-methylbenzo[d]oxazol-6-yl)-7H-pyrrolo[2,3-d]pyrimidin-2-ylamino)-3-methoxyphenyl)(2-methylaziridin-1-yl)methanone]

Row | SMILES | IC50 [nM]
26 | COc1cc(C(=O)NC2COC2)ccc1Nc1nc(OC2(C)CCC2)c2c(-c3ccc4nc(C)oc4c3)c[nH]c2n1 [Example 379, 3-methoxy-4-(5-(2-methylbenzo[d]oxazol-6-yl)-4-(1-methylcyclobutoxy)-7H-pyrrolo[2,3-d]pyrimidin-2-ylamino)-N-(oxetan-3-yl)benzamide] | < 100
27 | CNC(=O)c1ccc(-c2c[nH]c3nc(Nc4ccc(C(=O)NC5COC5)cc4Cl)nc(OC4CCC4)c23)cc1 [Example 333, 3-chloro-4-(4-cyclobutoxy-5-(4-(methylcarbamoyl)phenyl)-7H-pyrrolo[2,3-d]pyrimidin-2-ylamino)-N-(oxetan-3-yl)benzamide] | < 100
28 | CNC(=O)c1ccc(-c2c[nH]c3nc(Nc4cnn(CC(C)(C)O)c4Cl)nc(OC4CCC4)c23)cc1 [Example 372, 4-(2-(5-chloro-1-(2-hydroxy-2-methylpropyl)-1H-pyrazol-4-ylamino)-4-cyclobutoxy-7H-pyrrolo[2,3-d]pyrimidin-5-yl)-N-methylbenzamide] | < 100
